Data from patent EP0320002A1, “Inhalant” (KYORIN SEIYAKU KABUSHIKI KAISHA, priority 1987, dated 1989).
In brackets after ≈: the same amount, converted by molar mass.

Assay: solubility of ibudilast in water
Type: physicochemical

solubility: 150 µg/mL (≈ 651 µM)
SMILES: CC(C)C(=O)c1c(C(C)C)nn2ccccc12 [ibudilast, 3-isobutyryl-2-isopropylpyrazolo[1,5-a]pyridine]
